A value given as a limit tells only on which side of the number the result lay.

For assay [1], the system named is rat carrageenan paw edema. The experiment in a line: rat carrageenan paw edema assay. Format: in vivo, rat (male Sprague-Dawley). Conditions: for % Inhibition of edema at 50 mg/kg (peroral): 1 hour prior to carrageenan, edema at 3 hours; for ED50: Rattus norvegicus, po, 3 h, read-out: Oral ED50 (95% C.L.). Here is the method: The compounds of the invention are tested in the rat carrageenan paw edema assay to determine their ability to inhibit the acute inflammatory response. This assay is carried out as follows: 140-180 gm male Sprague-Dawley rats, in groups of 6 animals, are injected subcutaneously in the right paw with 0.1 ml of 1% carrageenan at zero time. Mercury plethysmographic readings (ml) of the paw are made at zero time and 3 hours later. Test compounds are suspended or dissolved in 0.5% methylcellulose and given perorally 1 hour prior to carrageenan administration. The increase in paw volume (edema in ml.) produced by the carrageenan is measured. […] Unpaired Student's t-test is used to determine statistical significance.

Assay [2] concerns IL 1-induced release of neutral protease from rabbit articular chondrocytes. Nature of the assay: inhibition of IL 1-induced release of neutral protease from rabbit articular chondrocytes (azocoll neutral protease assay). The assay is classed as cell-based. The following applies: Oryctolagus cuniculus, Chondrocyte, human IL 1, 24 h, ± S.D., read-out: % Inhibition of Protease Secretion. Here is the method: The ability of the compounds of the inventions to inhibit interleukin 1 is measured by the ability of the test compounds to inhibit the IL 1-induced release of neutral protease from rabbit articular chondrocytes.
This assay is carried out as follows:
Isolation of rabbit chondrocytes:
Male New Zealand White rabbits are anesthetized with 50 mg/kg of ketamine (i.m.) and killed by an intracardiac injection of 3 mls. of Nembutal. The knee joints of both legs are resected and the articular surfaces are exposed. Cartilage slices are obtained using a scalpel and are placed in a tissue culture dish (100 mm diameter) containing 10 mls of Hank's balanced salt solution (HBSS). The chondrocytes within the cartilage slices are then liberated by a series of enzyme digestions. The slices are incubated for 10 min. at 37° C. in 0.05% hyaluronidase (Sigma H-3884), rinsed with HBSS and incubated with 0.2% trypsin (Sigma T-2395) for 10 min. at 37° C. The slices are rinsed again and incubated for 10 mins. at 37° C. with 1.2% collagenase (Sigma C-5138). The slices are then rinsed again with HBSS and resuspended in 10 ml of Ham's F-12 medium containing 10% fetal bovine calf serum (FCS) and 0.2 % collagenase and incubated overnight at 37° C. in a 5% CO2 incubator. The next day, the medium containing the digested cartilage fragments and liberated chondrocytes is transferred to a 15 ml centrifuge tube and the cells are collected by centrifugation and washed twice and resuspended in Ham's F-12 medium. The cells are then plated into 24-well tissue culture plates (2×10^5 cells/well) and incubated at 37° C. until confluent (usually 4-6 days).
Stimulation of chondrocytes and drug treatment:
The confluent chondrocytes are rinsed twice with serum-free Ham's F-12 medium and 1 ml is added to each well. Fifty μl of purified human IL 1 (100 Units/ml; Genzyme Corporation, Boston, MA) is then added to stimulate these cells to secrete neutral protease. To measure drug effects, the cells are treated with test compound 10 min. prior to addition of IL 1. The standard screening dose is 10 μM. Twenty-four hours after IL 1 stimulation, supernatant fluids are collected and assayed for neutral protease activity.
The neutral protease activity of chondrocyte supernatant fluids is determined by their ability to degrade an insoluble protease substrate, azocoll (Sigma). Supernatants are treated for 10 min. at room temperature with 350 μM p-aminophenylmurcuric acetate to activate the latent enzyme. Three hundred μl of supernatant is then mixed with 500 μl of a 20 mg/ml suspension of azocoll and incubated at 37° C. for 18-24 hrs. with gentle rocking. The mixtures are centrifuged and the amount of substrate hydrolyzed is determined by measuring the absorbance of the supernatant at 520 nm.
Drug effects are calculated as the % change in enzyme activity (absorbance)by supernatants from drug-treated chondrocytes relative to enzyme activity of supernatants from vehicle-treated chondrocytes as follows:
% Inhibition of Protease Secretion= [formula]

Broadly, the inhibition is how much of the control response was suppressed. In the case of `N#Cc1ccc(NCCc2nc3cc(Cl)ccc3c3nn(-c4ccccc4)cc23)cc1` [Example 1, 4-[[2-(7-Chloro-2-phenyl-2H-pyrazolo-[4,3-c]quinolin-4-yl)ethyl]amino]benzonitrile], the “% Inhibition of edema at 50 mg/kg (peroral)” value in assay [1] was 38%. Further, in assay [2], the inhibition at 0.1 µM worked out at 60 ± 13%, the inhibition at 1 µM came out at 75 ± 5% and the inhibition at 10 µM was found to be 88 ± 2%.
On to `CCOC(=O)c1ccc(NCCc2nc3ccccc3c3nn(-c4ccccc4)cc23)cc1` [Example 7, 4-[[2-(2-phenyl-2H-pyrazolo[4,3-c]quinolin-4-yl)ethyl]amino]benzoic acid ethyl ester], for which the inhibition at 10 µM in assay [2] turned out to be 83%.
For the molecule `Clc1ccc2c(c1)nc(CCNc1ncccn1)c1cn(-c3ccccc3)nc12` [Example 3, 7-Chloro-2-phenyl-N-(2-pyrimidinyl)-2H-pyrazolo[4,3-c]quinoline-4-ethanamine], in assay [2], the inhibition at 1 µM was determined as 22% and the inhibition at 10 µM is 79 ± 29%.
`CCOC(=O)c1ccc(N(CCc2nc3cc(Cl)ccc3c3nn(-c4ccccc4)cc23)C(=O)Nc2ccccc2)cc1` [Example 9]: in assay [2], the inhibition at 10 µM was 49%.
Same read-out and setting: for `CS(=O)(=O)c1ccc(NCCc2nc3cc(Cl)ccc3c3nn(-c4ccccc4)cc23)cc1` [Example 12, 7-Chloro-N-[(4-methylsulfonyl)phenyl]-2-phenyl-2H-pyrazolo[4,3-c]quinoline-4-ethanamine] the value was 41%.
`N#Cc1ccc(N(CCc2nc3cc(Cl)ccc3c3nn(-c4ccccc4)cc23)C(=O)Nc2ccccc2)cc1` [Example 8, N-[2-(7-chloro-2-phenyl-2H-pyrazolo[4,3-c]quinolin-4-yl)ethyl]-N-(4-cyanophenyl)-N'-phenylurea]: in assay [2], the inhibition at 10 µM was ≤ 20%.
On the same count and under the same terms, then `Clc1ccc2c(c1)nc(CCNc1cnccn1)c1cn(-c3ccccc3)nc12` [Example 6, 7-Chloro-2-phenyl-N-(2-pyrazinyl)-2H-pyrazolo-[4,3-c]quinoline-4-ethanamine, hemihydrate], with 60%; and `N#Cc1ccc(N(CCc2nc3cc(Cl)ccc3c3nn(-c4ccccc4)cc23)C(=O)Nc2ccc(Cl)cc2)cc1` [Example 10, N'-(4-Chlorophenyl)-N-[2-(7-chloro-2-phenyl-2H-pyrazolo[4,3-c]quinolin-4-yl)ethyl]-N-(4-cyanophenyl)urea], with 51%.
On the same count and under the same terms, for `CCOC(=O)c1ccc(N(CCc2nc3cc(Cl)ccc3c3nn(-c4ccccc4)cc23)C(=O)Nc2ccc(Cl)cc2)cc1` [Example 11, 4-[[[(4-chlorophenyl)amino]carbonyl][2-(7-chloro-2-phenyl-2H-pyrazolo[4,3-c]quinolin-4-yl)ethyl]amino]benzoic acid ethyl ester, hydrate] the value was 47%; for `Clc1ccc2c(c1)nc(CCNc1ccc3ccccc3n1)c1cn(-c3ccccc3)nc12` [Example 4, 7-Chloro-2-phenyl-N-(2-quinolinyl)-2H-pyrazolo[4,3-c]quinoline-4-ethanamine], ≤ 20%.
In the case of `CCOC(=O)c1ccc(NCCc2nc3cc(Cl)ccc3c3nn(-c4ccccc4)cc23)cc1` [Example 2, 4-[[2-(7-Chloro-2-phenyl-2H-pyrazolo[4,3-c]quinolin-4-yl)ethyl]amino]benzoic acid ethyl ester], the “% Inhibition of edema at 50 mg/kg (peroral)” value in assay [1] turned out to be 32%. Also, in assay [2], the inhibition at 0.1 µM stood at 41 ± 10%, the inhibition at 1 µM was 70 ± 4% and the inhibition at 10 µM came out at 85 ± 3%.
Broadly, the ED50 is the dose at which the effect has come halfway, by size or by number of responders. Consider `CC(=O)Oc1ccccc1C(=O)O` [Aspirin, reference compound], for which the ED50 in assay [1] worked out at 145 mg/kg.
With `Fc1ccc(NCCc2nc3cc(Cl)ccc3c3nn(-c4ccccc4)cc23)cc1` [Example 5, 7-Chloro-N-(4-fluorophenyl)-2-phenyl-2H-pyrazolo[4,3-c]quinoline-4-ethanamine], in assay [2], the inhibition at 10 µM stood at 14%.
For `COc1ccc2c(c1)c(CC(=O)O)c(C)n2C(=O)c1ccc(Cl)cc1` [Indomethacin, reference compound], in assay [1], the ED50 was found to be 3.7 mg/kg.

The record behind these values is US4748246A, “Pyrazolo(4,3-c)quinolines” (American Home Products Corporation, priority 1987, dated 1988).
